Assay [1] deals with rat mGlu2 receptor (Rattus norvegicus (Rat), UniProt P31421). Put plainly: mGlu2 in vitro GIRK thallium flux assay. The format is cell-based. The note with it: NAM, EC80 glutamate, HEK-293 GIRK cells. The procedure: (§1) All cell culture reagents were purchased from Invitrogen Corp. (Carlsbad, Calif.) unless otherwise noted. Compound activity at the group II (mGlu2 and mGlu3) mGlus was assessed using thallium flux through GIRK channels. Briefly, cells were plated into 384-well, black-walled, clear-bottomed poly-D-lysine-coated plates at a density of 15,000 cells/20 μL/well in DMEM containing 10% dialyzed FBS, 20 mM HEPES, and 100 units/mL penicillin/streptomycin (assay media). Plated cells were incubated overnight at 37° C. in the presence of 5% CO2. […] Cells were incubated for 1 h at room temperature, and the dye exchanged to assay buffer using an ELX405, leaving 20 μL/well. Test compounds were diluted to 2 times their final desired concentration in assay buffer (0.3% DMSO final concentration). […] Cell plates and compound plates were loaded onto a kinetic imaging plate reader (FDSS 6000 or 7000; Hamamatsu Corporation, Bridgewater, N.J.). Appropriate baseline readings were taken (10 images at 1 Hz; excitation, 470±20 nm; emission, 540±30 nm) and test compounds were added in a 20 μL volume and incubated for either 2.5 min or 60 min as indicated before the addition of 10 μL of thallium buffer with or without agonist. After the addition of agonist, data were collected for approximately an additional 2.5 min. Data were analyzed using Excel (Microsoft Corp, Redmond, Wash.). The slope of the fluorescence increase beginning 5 s after thallium/agonist addition and ending 15 s after thallium/agonist addition was calculated, corrected to vehicle and maximal agonist control slope values, and plotted in using either XLfit (ID Business Solutions Ltd) or Prism software (GraphPad Software, San Diego, Calif.) to generate concentration-response curves. Potencies were calculated from fits using a four-point parameter logistic equation. For concentration-response curve experiments, compounds were serially diluted 1:3 into 10 point concentration response curves and were transferred to daughter plates using an Echo acoustic plate reformatter (Labcyte, Sunnyvale, Calif.). Test compounds were applied and followed by EC80 concentrations of glutamate.

For assay [2], the target named is rat mGlu3 receptor (Rattus norvegicus (Rat), UniProt P31422). Put plainly: mGlu3 in vitro GIRK thallium flux assay. The format is cell-based. The note with it: NAM; 2.5 min compound incubation; EC80 glutamate; HEK-293 GIRK cells. The procedure:
as §1

Where [3] appears, read: 2.5 min compound incubation, read-out: mGlu2 EC50 (μM) (2.5 min).
[4] abbreviates: read-out: mGlu2 EC50 (μM) (60 min), 60 min compound incubation.
Where [5] appears, read: mGlu2 EC50 (μM) (60 min), 60 min compound incubation.

Where two headings read alike, the source gives them in different places.

Sequence of rat mGlu3 receptor (P31422 23-879): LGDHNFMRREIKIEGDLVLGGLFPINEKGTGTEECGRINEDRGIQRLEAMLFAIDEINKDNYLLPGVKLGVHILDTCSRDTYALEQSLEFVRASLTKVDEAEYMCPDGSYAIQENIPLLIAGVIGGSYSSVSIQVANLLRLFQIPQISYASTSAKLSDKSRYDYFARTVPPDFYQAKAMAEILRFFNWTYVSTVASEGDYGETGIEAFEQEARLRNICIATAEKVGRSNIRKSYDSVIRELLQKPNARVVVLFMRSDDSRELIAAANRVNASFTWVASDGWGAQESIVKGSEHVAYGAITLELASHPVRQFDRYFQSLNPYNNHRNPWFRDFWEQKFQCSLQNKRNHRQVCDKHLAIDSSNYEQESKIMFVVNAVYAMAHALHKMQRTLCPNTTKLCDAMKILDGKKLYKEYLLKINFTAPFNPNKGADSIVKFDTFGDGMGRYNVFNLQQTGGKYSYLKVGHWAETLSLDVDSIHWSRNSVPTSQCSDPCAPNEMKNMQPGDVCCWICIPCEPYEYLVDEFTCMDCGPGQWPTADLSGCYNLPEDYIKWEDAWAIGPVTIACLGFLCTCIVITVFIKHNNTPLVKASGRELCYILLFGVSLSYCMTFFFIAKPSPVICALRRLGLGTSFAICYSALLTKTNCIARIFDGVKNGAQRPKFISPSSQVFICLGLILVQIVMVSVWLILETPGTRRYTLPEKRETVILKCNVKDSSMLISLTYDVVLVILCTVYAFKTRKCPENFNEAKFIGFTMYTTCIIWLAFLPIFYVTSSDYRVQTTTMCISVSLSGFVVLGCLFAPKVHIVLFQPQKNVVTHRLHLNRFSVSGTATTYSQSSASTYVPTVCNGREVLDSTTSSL
Sequence of rat mGlu2 receptor (P31421 19-872): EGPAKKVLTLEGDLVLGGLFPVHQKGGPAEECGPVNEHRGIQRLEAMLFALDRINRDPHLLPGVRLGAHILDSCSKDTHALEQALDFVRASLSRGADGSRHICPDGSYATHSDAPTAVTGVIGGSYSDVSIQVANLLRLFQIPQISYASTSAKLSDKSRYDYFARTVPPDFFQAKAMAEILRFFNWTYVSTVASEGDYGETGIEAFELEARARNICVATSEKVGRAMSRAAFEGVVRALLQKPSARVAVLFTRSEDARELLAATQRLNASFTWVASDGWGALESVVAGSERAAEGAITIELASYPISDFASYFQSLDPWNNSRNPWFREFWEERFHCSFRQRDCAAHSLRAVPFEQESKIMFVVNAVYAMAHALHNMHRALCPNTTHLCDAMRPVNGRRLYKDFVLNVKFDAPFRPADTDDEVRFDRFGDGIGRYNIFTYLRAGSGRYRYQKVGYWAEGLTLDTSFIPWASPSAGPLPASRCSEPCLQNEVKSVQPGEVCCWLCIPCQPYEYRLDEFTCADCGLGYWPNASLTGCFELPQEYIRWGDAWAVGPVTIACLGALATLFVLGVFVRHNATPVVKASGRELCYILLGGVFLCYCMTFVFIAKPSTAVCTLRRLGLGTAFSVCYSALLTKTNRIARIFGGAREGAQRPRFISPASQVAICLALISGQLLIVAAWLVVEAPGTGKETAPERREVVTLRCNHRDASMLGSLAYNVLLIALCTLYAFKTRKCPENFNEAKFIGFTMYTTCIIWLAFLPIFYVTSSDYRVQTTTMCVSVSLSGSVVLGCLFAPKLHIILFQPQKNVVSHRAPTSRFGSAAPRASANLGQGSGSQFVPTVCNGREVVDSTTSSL

In the case of `Cc1cc2c(cc1C(F)(F)F)NC(=O)CC(c1cccc(Sc3ncccn3)c1)N2` (single isomer, unassigned) [Example 166B, 7-Methyl-4-(3-(pyrimidin-2-ylthio)phenyl)-8-(trifluoromethyl)-4,5-dihydro-1H-benzo[b][1,4]diazepin-2(3H)-one], the EC50 amounted to 8.47 µM in assay [1] (setting [3]), 1.23 µM in assay [1] (setting [4]) and 4.53 µM in assay [2].
For `O=C(O)c1cc(-c2cccc(-c3nc(-c4nccs4)cc(C(F)(F)F)n3)c2)ccc1F` [Example 109, 4-Fluoro-3′-(4-(thiazol-2-yl)-6-(trifluoromethyl)pyrimidin-2-yl)biphenyl-3-carboxylic Acid] the same measures were 1.34 µM, 0.297 µM and 2.13 µM.
As to `O=C(O)c1cc(-c2cccc(-c3nc(-c4cc(C(F)(F)F)cc(C(F)(F)F)c4)cc(C(F)(F)F)n3)c2)ccc1F` [Example 105, 3′-(4-(3,5-Bis(trifluoromethyl)phenyl)-6-(trifluoromethyl)pyrimidin-2-yl)-4-fluorobiphenyl-3-carboxylic Acid], the EC50 in assay [1] (setting [3]) was > 10 µM; in assay [1] (setting [4]) it was 3.19 µM; in assay [2], > 10 µM.
In the case of `Cc1cc(Cl)ccc1-c1ccc2c(c1)NC(=O)CC(c1ccnc(Cl)c1)=N2` [Example 196, 8-(4-Chloro-2-methylphenyl)-4-(2-chloropyridin-4-yl)-1,3-dihydro-2H-benzo[b][1,4]diazepin-2-one], the results for the EC50 in assay [1] (setting [3]), in assay [1] (setting [4]) and in assay [2] were 3.59 µM, 0.6 µM and 2.94 µM, respectively.
For `O=C1CC(c2ccnc(Cl)c2)=Nc2ccc(-c3ccc(C(F)(F)F)cc3F)cc2N1` [Example 201, 4-(2-Chloropyridin-4-yl)-8-(2-fluoro-4-(trifluoromethyl)phenyl)-1,3-dihydro-2H-benzo[b][1,4]diazepin-2-one] the same measures were > 10 µM, 0.52 µM and 1.61 µM.
Taken in the same sequence, the figures for `O=C(O)c1cc(-c2cccc(-c3nccc(-c4ccoc4)n3)c2)ccc1F` [Example 118, 4-Fluoro-3′-(4-(furan-3-yl)pyrimidin-2-yl)biphenyl-3-carboxylic Acid] were 0.26 µM, 1.01 µM and 1.38 µM.
Take `O=C(O)c1ccc(-c2cccc(-c3csc(-c4ccccc4)n3)c2)cc1` [Example 22, 3′-(2-Phenylthiazol-4-yl)biphenyl-4-carboxylic Acid]: the EC50 was > 30 µM in assay [1] (setting [3]), > 10 µM in assay [1] (setting [5]) and > 30 µM in assay [2].
In the case of `Cc1cc(-c2cccc(C3CC(=O)Nc4cc(NC(=O)Oc5ccccc5)ccc4N3)c2)cc(C)n1` (stereo not drawn) [Example 163, Phenyl (2-(3-(2,6-dimethylpyridin-4-yl)phenyl)-4-oxo-2,3,4,5-tetrahydro-1H-benzo[b][1,4]diazepin-7-yl)carbamate], the EC50 in assay [1] (setting [3]), in assay [1] (setting [4]) and in assay [2] was > 10 µM in each case.
`O=C(O)c1cc(F)cc(-c2cccc(-c3nc(-c4ccoc4)cc(C(F)(F)F)n3)c2)c1` [Example 113, 5-Fluoro-3′-(4-(furan-3-yl)-6-(trifluoromethyl)pyrimidin-2-yl)biphenyl-3-carboxylic Acid]: the values for the EC50 in assay [1] (setting [3]), in assay [1] (setting [4]) and in assay [2] were 0.4 µM, 0.23 µM and 1.15 µM, respectively.
For `O=C(O)c1cc(-c2cccc(-c3nc(-c4ccccc4)n(-c4ccccc4)n3)c2)ccc1F` [Example 51, 3′-(1,5-Diphenyl-1H-1,2,4-triazol-3-yl)-4-fluoro-[1,1′-biphenyl]-3-carboxylic acid], the EC50 in assay [1] (setting [3]) was > 10 µM; in assay [1] (setting [5]) it was > 10 µM; in assay [2] it was 5.8 µM.
With `O=C(NO)c1cc(-c2cccc(-c3nc(-c4ccoc4)cc(C(F)(F)F)n3)c2)ccc1F` [Example 131, 4-Fluoro-3′-(4-(furan-3-yl)-6-(trifluoromethyl)pyrimidin-2-yl)-N-hydroxy-[1,1′-biphenyl]-3-carboxamide], the EC50 is > 10 µM in assay [1] (setting [3]), 3.36 µM in assay [1] (setting [4]) and > 10 µM in assay [2].

By EC50 is commonly meant the midpoint of the concentration-response curve.

For the origin of these results see US9969726B2, “Metabotropic glutamate receptor negative allosteric modulators (NAMS) and uses thereof” (Sanford-Burnham Medical Research Institute, priority 2014, dated 2018).
